According to ChEMBL document CHEMBL1146415, “3-Epi-aplykurodinone B, a new degraded sterol from Aplysia fasciata” (1997):

How the values were obtained:
Assay type in all cases: functional
Details in all cases: read-out: ED50 (the source's name)
HT-29 = assay: Cytotoxicity against human HT-29 cells
A549 = assay: Cytotoxicity against human A549 cells
SK-MEL-28 = assay: Cytotoxicity against human SK-MEL-28 cells
P388 = assay: Cytotoxicity against mouse P388 cells

Measured: EC50

CC(C)=CCC[C@@H](C)[C@H]1C[C@@H]2OC(=O)C[C@@H]3C(=O)CC[C@@]1(C)[C@H]23 [3-EPI-APLYKURODINONE B]
2.5 µg/mL: all assays above
